Where a name gives a salt, the structure may show the parent alone. Read-outs that look alike come from different tables or passages of the source.
Target: T1, human leukocyte elastase (HLE) (Homo sapiens, UniProt P08246)
T1 sequence (P08246 30-267): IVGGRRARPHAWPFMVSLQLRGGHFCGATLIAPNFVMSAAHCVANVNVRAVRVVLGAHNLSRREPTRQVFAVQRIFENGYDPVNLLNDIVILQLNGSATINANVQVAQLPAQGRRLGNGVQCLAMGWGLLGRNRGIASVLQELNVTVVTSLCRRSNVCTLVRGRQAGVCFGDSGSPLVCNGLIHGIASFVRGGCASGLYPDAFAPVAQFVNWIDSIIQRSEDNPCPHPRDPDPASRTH
Experiment: Inhibition of human leukocyte elastase: rate of inactivation kon and inhibition constant Ki* (koff/kon)
Format: biochemical

[1] = Ki* = koff/kon, calculated from measured koff and kon, not a truly reversible Ki, read-out: K*i

Protocol: Thus, instead of measuring a Ki, a Ki* is calculated which is defined as the ratio of the koff/kon, the rate of reactivation of the enzyme to the rate of inactivation of the enzyme. The values of koff and kon are measured and Ki* is then calculated.
The rate of inactivation, kon, of enzymatic activity was determined for the compounds tested by measuring the enzyme activity of an aliquot of the respective enzyme as a function of time after addition of the test compound. […] The rate of inactivation is then equal to [formula] where [I] is the concentration of the inhibiting compound.
The reactivation constant, koff, is similarly determined, and the inhibition constant, Ki*, is then calculated as Ki * = koff /kon [formula]

COCC(COc1cc(C(C)C)c2c(c1)S(=O)(=O)N(COC(=O)c1c(Cl)cccc1Cl)C2=O)OC (racemic) [Example 5F] showed a Ki [1] of 0.027 nM.

Work on CC(C)c1cccc2c1C(=O)N(COC(=O)c1c(Cl)ccc(S(=O)(=O)N(C)CCN(C)C)c1Cl)S2(=O)=O [Example 1AA] yielded a Ki [1] of 0.01 nM.

COc1ccc(Cl)c(C(=O)OCN2C(=O)c3c(C(C)C)cccc3S2(=O)=O)c1Cl [Example 1AB] was tested, and the Ki [1] was 0.016 nM.

In the case of COc1cc(Cl)c(C(=O)OCN2C(=O)c3c(C(C)C)cccc3S2(=O)=O)c(Cl)c1 [Example 1AC], the Ki [1] is reported as 0.025 nM.

CC(C)c1cccc2c1C(=O)N(COC(=O)c1c(Cl)ccc(OCCN(C)C)c1Cl)S2(=O)=O [Example 1AE] gave a Ki [1] of 0.009 nM.

CC(C)c1cccc2c1C(=O)N(COC(=O)c1c(Cl)ccc(S(=O)(=O)N(C)CCCN(C)C)c1Cl)S2(=O)=O [Example 1AF] showed a Ki [1] of 0.01 nM.

For CC(C)c1cccc2c1C(=O)N(COC(=O)c1c(F)ccc(S(=O)(=O)N3CCN(C)CC3)c1F)S2(=O)=O [Example 1AG], the Ki [1] was 0.01 nM.

O=C(OCN1C(=O)c2ccccc2S1(=O)=O)c1c2ccccc2cc2ccccc12 [Example 1AM] gave a Ki [1] of 2.1 nM.

For CC(C)c1cccc2c1C(=O)N(COC(=O)c1ccc(Cl)cc1Cl)S2(=O)=O [Example 1AO], the Ki [1] was 1 nM.

For COc1cc(C(C)C)c2c(c1)S(=O)(=O)N(COC(=O)c1c(Cl)ccc(OCCN(C)C)c1Cl)C2=O [Example 1AS], the Ki [1] was 0.013 nM.

COc1cc(C(C)C)c2c(c1)S(=O)(=O)N(COC(=O)c1c(Cl)ccc(OCCN3CCCCC3)c1Cl)C2=O [Example 1AU] was tested, and the Ki [1] was 0.03 nM.

Compound CCN(CC)CCOc1ccc(Cl)c(C(=O)OCN2C(=O)c3c(C(C)C)cc(OC)cc3S2(=O)=O)c1Cl [Example 1AV] has a Ki [1] of 0.023 nM.

CCOc1cc(C(C)C)c2c(c1)S(=O)(=O)N(COC(=O)c1c(Cl)ccc(OCCN3CCOCC3)c1Cl)C2=O [Example 1AX] showed a Ki [1] of 0.033 nM.

In the case of CCc1c(OC)cc(OC)c2c1C(=O)N(COC(=O)c1c(Cl)cccc1Cl)S2(=O)=O [Example 1AY], the Ki [1] is reported as 0.9 nM.

In the case of CCCc1c(OC)c(OC)cc2c1C(=O)N(COC(=O)c1c(Cl)cccc1Cl)S2(=O)=O [Example 1BA], the Ki [1] is reported as 0.078 nM.

COc1cc2c(c(C(C)C)c1OC)C(=O)N(COC(=O)c1c(Cl)cccc1Cl)S2(=O)=O [Example 1BB] was tested, and the Ki [1] was 0.35 nM.

For CCCc1c(OC)c(OC)cc2c1C(=O)N(COC(=O)c1c(Cl)ccc(OCCN3CCOCC3)c1Cl)S2(=O)=O [Example 1BD], the Ki [1] was 0.07 nM.

Compound CCOP(=O)(OCC)c1cccc(C(=O)OCN2C(=O)c3c(C(C)C)cc(OC)cc3S2(=O)=O)c1 [Example 1BE] has a Ki of 0.064 nM.

With COc1cc(C(C)C)c2c(c1OC)S(=O)(=O)N(COC(=O)c1c(Cl)cccc1Cl)C2=O [Example 1BF] the Ki [1] was 2 nM.

Work on CC(C)c1cc2c(c3c1C(=O)N(COC(=O)c1c(Cl)cccc1Cl)S3(=O)=O)OCO2 [Example 1BG] yielded a Ki [1] of 0.043 nM.

For COc1cc(C(C)C)c2c(c1OC)S(=O)(=O)N(COC(=O)c1c(Cl)ccc(S(=O)(=O)N3CCN(C)CC3)c1Cl)C2=O [Example 1BH], the Ki [1] was 0.6 nM.

For CC(C)c1cc2c(c3c1C(=O)N(COC(=O)c1c(Cl)ccc(S(=O)(=O)N4CCN(C)CC4)c1Cl)S3(=O)=O)OCO2 [Example 1BI], the Ki [1] was 0.029 nM.

CC(C)c1cc2c(c3c1C(=O)N(COC(=O)c1c(Cl)ccc(OCCN4CCOCC4)c1Cl)S3(=O)=O)OCO2 [Example 1BJ] showed a Ki [1] of 0.029 nM.

Work on COc1cc(C(C)C)c2c(c1)S(=O)(=O)N(COC(=O)c1c(OC)cccc1OC)C2=O [Example 1BK] yielded a Ki [1] of 0.088 nM.

For COc1cc(C(C)C)c2c(c1)S(=O)(=O)N(COC(=O)c1c(F)cccc1F)C2=O [Example 1BL], the Ki [1] was 0.043 nM.

Work on COc1cc(C(C)C)c2c(c1)S(=O)(=O)N(COC(=O)c1c(C)cccc1C)C2=O [Example 1BM] yielded a Ki [1] of 0.08 nM.

Work on COc1cc(C(C)C)c2c(c1)S(=O)(=O)N(COC(=O)c1c(OC)ccc([N+](=O)[O-])c1OC)C2=O [Example 1BN] yielded a Ki [1] of 0.025 nM.

COc1cc(OC)c(C(=O)OCN2C(=O)c3c(C(C)C)cc(OC)cc3S2(=O)=O)c(OC)c1 [Example 1BO] was tested, and the Ki [1] was 0.05 nM.

In the case of COc1cc(C(C)C)c2c(c1)S(=O)(=O)N(COC(=O)c1c(OC)cc(OCc3ccccc3)cc1OC)C2=O [Example 1BP], the Ki [1] is reported as 0.35 nM.

COc1cc(F)c(C(=O)OCN2C(=O)c3c(C(C)C)cc(OC)cc3S2(=O)=O)c(F)c1 [Example 1BQ] showed a Ki [1] of 0.068 nM.

Compound COc1cc(C(C)C)c2c(c1)S(=O)(=O)N(COC(=O)c1c(OC)ccc(NC(C)=O)c1OC)C2=O [Example 1BR] has a Ki [1] of 0.057 nM.

In the case of COc1cc(C(C)C)c2c(c1)S(=O)(=O)N(COC(=O)c1ccccc1C(C)C)C2=O [Example 1BS], the Ki [1] is reported as 0.036 nM.

Work on CC(C)c1cccc2c1C(=O)N(COC(=O)c1c(Cl)cc(OCCN3CCOCC3)cc1Cl)S2(=O)=O [Example 1BY] yielded a Ki [1] of 0.025 nM.

COc1cc(C(C)C)c2c(c1)S(=O)(=O)N(COC(=O)c1c(C)cc(OCc3ccccc3)cc1C)C2=O [Example 1BZ] was tested, and the Ki [1] was 0.3 nM.

In the case of CC(C)c1cc(O)cc2c1C(=O)N(COC(=O)c1c(Cl)cccc1Cl)S2(=O)=O [Example 1C, 4-isopropyl-6-hydroxysaccharinylmethyl 2,6-dichlorobenzoate], the Ki [1] is reported as 0.4 nM.

COc1ccc(C(=O)OCN2C(=O)c3ccccc3S2(=O)=O)c(OC)c1 [Example 1E] was tested, and the Ki [1] was 18 nM.

O=C(OCN1C(=O)c2ccccc2S1(=O)=O)c1cccc2ccccc12 [Example 1F] was tested, and the Ki [1] was 3 nM.

Work on CC(C)c1cccc2c1C(=O)N(COC(=O)c1cccc3ccccc13)S2(=O)=O [Example 1I] yielded a Ki [1] of 0.48 nM.

Work on Cc1cccc(C)c1C(=O)OCN1C(=O)c2c(C(C)C)cccc2S1(=O)=O [Example 1K] yielded a Ki [1] of 0.09 nM.

CC(C)c1cccc2c1C(=O)N(COC(=O)c1c3ccccc3cc3ccccc13)S2(=O)=O [Example 1L] showed a Ki [1] of 0.3 nM.

CC(C)c1cccc2c1C(=O)N(COC(=O)c1cc(Cl)ccc1Cl)S2(=O)=O [Example 1M] showed a Ki [1] of 0.25 nM.

For O=C(OCN1C(=O)c2ccccc2S1(=O)=O)c1c(Cl)ccc(S(=O)(=O)N2CCOCC2)c1Cl [Example 1S], the Ki [1] was 2 nM.

O=C(O)CNS(=O)(=O)c1ccc(Cl)c(C(=O)OCN2C(=O)c3ccccc3S2(=O)=O)c1Cl [Example 1T] gave a Ki [1] of 4 nM.

With CC(C)c1cccc2c1C(=O)N(COC(=O)c1c(Cl)ccc(S(=O)(=O)N3CCOCC3)c1Cl)S2(=O)=O [Example 1U] the Ki [1] was 0.01 nM.

CC(C)c1cccc2c1C(=O)N(COC(=O)c1c(Cl)ccc(S(=O)(=O)N3CCN(C)CC3)c1Cl)S2(=O)=O [Example 1V] was tested, and the Ki [1] was 0.007 nM.

CC(C)c1cccc2c1C(=O)N(COC(=O)c1c(Cl)ccc(S(=O)(=O)NCC(=O)O)c1Cl)S2(=O)=O [Example 1W] gave a Ki [1] of 0.01 nM.

CC(C)c1cccc2c1C(=O)N(COC(=O)c1cccc(OCc3ccccc3)c1)S2(=O)=O [Example 1X] was tested, and the Ki [1] was 0.5 nM.

For CC(C)c1cccc2c1C(=O)N(COC(=O)c1c(Cl)ccc(OCc3ccccc3)c1Cl)S2(=O)=O [Example 1Y], the Ki [1] was 0.12 nM.

With CC(C)c1cccc2c1C(=O)N(COC(=O)c1c(Cl)ccc(S(=O)(=O)N3CCN(Cc4ccccc4)CC3)c1Cl)S2(=O)=O [Example 1Z, 4-isopropyl-2-saccharinylmethyl 2,6-dichloro-3-(4-benzyl-1-piperazinyl-sulfonyl)benzoate] the Ki [1] was 0.06 nM.

CC(C)c1cccc2c1C(=O)N(COC(=O)c1c(Cl)ccc(O)c1Cl)S2(=O)=O [Example 2A, 4-isopropyl-2-saccharinylmethyl 2,6-dichloro-3-hydroxybenzoate] was tested, and the Ki [1] was 0.04 nM.

Work on CC(C)c1cccc2c1C(=O)N(COC(=O)c1c(Cl)ccc(S(=O)(=O)N3CCNCC3)c1Cl)S2(=O)=O [Example 2B, 4-isopropyl-2-saccharinylmethyl 2,6-dichloro-3-(1-piperazinylsulfonyl)benzoate hydrochloride] yielded a Ki [1] of 0.02 nM.

For COc1cc(C(C)C)c2c(c1)S(=O)(=O)N(COC(=O)c1c(Cl)ccc(S(=O)(=O)NCC(=O)O)c1Cl)C2=O [Example 2D, 4-isopropyl-6-methoxy-2-saccharinylmethyl 2,6-dichloro-3-carboxymethylamino-sulfonylbenzoate], the Ki [1] was 0.008 nM.

CC(C)c1cccc2c1C(=O)N(COC(=O)c1c(Cl)ccc(OCC(=O)O)c1Cl)S2(=O)=O [Example 3, 4-isopropyl-2-saccharinylmethyl 2,6-dichloro-3-carboxymethoxybenzoate] was tested, and the Ki [1] was 0.01 nM.

CCOc1cc(C(C)C)c2c(c1)S(=O)(=O)N(COC(=O)c1c(Cl)cccc1Cl)C2=O [Example 5A, 6-ethoxy-4-isopropyl-2-saccharinylmethyl 2,6-dichlorobenzoate] was tested, and the Ki [1] was 0.05 nM.

CC(C)Oc1cc(C(C)C)c2c(c1)S(=O)(=O)N(COC(=O)c1c(Cl)cccc1Cl)C2=O [Example 5B] gave a Ki [1] of 0.057 nM.

CC(C)c1cc(OCC2COC(C)(C)O2)cc2c1C(=O)N(COC(=O)c1c(Cl)cccc1Cl)S2(=O)=O (centres unmarked) [Example 5C] gave a Ki [1] of 0.03 nM.

COCCOCCOc1cc(C(C)C)c2c(c1)S(=O)(=O)N(COC(=O)c1c(Cl)cccc1Cl)C2=O [Example 5D] was tested, and the Ki [1] was 0.03 nM.

In the case of COC(=O)COc1cc(C(C)C)c2c(c1)S(=O)(=O)N(COC(=O)c1c(Cl)cccc1Cl)C2=O [Example 5E], the Ki [1] is reported as 0.017 nM.

For CC(C)c1cc(OC2CCC2)cc2c1C(=O)N(COC(=O)c1c(Cl)cccc1Cl)S2(=O)=O [Example 5G], the Ki [1] was 0.054 nM.

For CC(C)c1cc(-c2cccn2C)cc2c1C(=O)N(COC(=O)c1c(Cl)cccc1Cl)S2(=O)=O [Example 5J, 4-isopropyl-6-[2-[1-methyl]pyrrolidinyl]saccharinylmethyl 2,6-dichlorobenzoate], the Ki [1] was 0.2 nM.

CC(C)c1cc(OCC(O)CO)cc2c1C(=O)N(COC(=O)c1c(Cl)cccc1Cl)S2(=O)=O (centres unmarked) [Example 6, 6-(2,3-dihydroxypropoxy)-4-isopropylsaccharinylmethyl 2,6-dichlorobenzoate] gave a Ki [1] of 0.016 nM.

CC(C)c1cc(OCC(=O)OC(C)(C)C)cc2c1C(=O)N(COC(=O)c1c(Cl)cccc1Cl)S2(=O)=O [Example 7A, 6-(2-t-butoxy-2-oxoethoxy)-4-isopropyl-2-saccharinylmethyl 2,6-dichlorobenzoate] was tested, and the Ki [1] was 0.08 nM.

Source: patent EP0483928A1, “2-Saccharinylmethyl aryl carboxylates useful as proteolytic enzyme inhibitors and compositions and method of use” (STERLING WINTHROP INC., priority 1990, dated 1992)
